pKd: −log10 of the molar value.
Biological target: T1, Nitric oxide synthase oxygenase (Bacillus subtilis (strain 168), UniProt O34453)
T1 sequence (O34453 whole entry): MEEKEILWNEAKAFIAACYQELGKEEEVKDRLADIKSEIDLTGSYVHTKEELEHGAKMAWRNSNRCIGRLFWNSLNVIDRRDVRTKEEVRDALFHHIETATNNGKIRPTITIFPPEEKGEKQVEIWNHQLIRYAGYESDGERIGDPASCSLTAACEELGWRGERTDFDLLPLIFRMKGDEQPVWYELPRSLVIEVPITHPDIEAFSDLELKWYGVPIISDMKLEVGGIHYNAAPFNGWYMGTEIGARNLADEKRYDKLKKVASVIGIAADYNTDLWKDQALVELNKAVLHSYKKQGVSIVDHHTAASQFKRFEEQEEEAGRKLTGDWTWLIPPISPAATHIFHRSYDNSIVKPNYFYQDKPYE
Test: Imidazole Spin Shift Assay

pKd	SMILES
4.00	N=C(Nc1cccc(CCc2cccc(NC(=N)c3cccs3)c2)c1)c1cccs1 [N-(3-{2-[3-(thiophene-2-imidamido)phenyl]ethyl}phenyl)thiophene-2-carboximidamide (19)]
4.21	CNCCN(c1cc(F)cc(CCc2cc(C)cc(N)n2)c1)C1CC1 [6-[2-(3-{cyclopropyl[2-(methylamino)ethyl]amino}-5-fluorophenyl)ethyl]-4-methylpyridin-2-amine (18)]
5.35	Cc1cc(N)nc(CCc2cc(C#N)cc(CCc3cc(C)cc(N)n3)c2)c1
5.06	Cc1cc(N)nc(CCc2ccc(CCCN)c(CCc3cc(C)cc(N)n3)c2)c1
4.30	CNCCN(C)c1cccc(CCc2cc(C)cc(N)n2)c1 [4-methyl-6-[2-(3-{methyl[2-(methylamino)ethyl]amino}phenyl)ethyl]pyridin-2-amine (13)]
4.24	CNCCN(C)c1cncc(CCc2cc(C)cc(N)n2)c1 [4-methyl-6-[2-(5-{methyl[2-(methylamino)ethyl]amino}pyridin-3-yl)ethyl]pyridin-2-amine (14)]
5.11	N=C(Nc1cccc(COC[C@H]2C[C@H](OCc3cccc(NC(=N)c4cccs4)c3)CN2)c1)c1cccs1 [N-[3-({[(3S,5R)-5-({[3-(thiophene-2-imidamido)phenyl]methoxy}methyl)pyrrolidin-3-yl]oxy}methyl)phenyl]-2H-1λ⁴-thiophene-2-carboximidamide (28)]
3.90	NC(=Nc1cccc(OCCOc2cccc(N=C(N)c3cccs3)c2)c1)c1cccs1 [N-(3-{2-[3-(thiophene-2-imidamido)phenoxy]ethoxy}phenyl)thiophene-2-carboximidamide (26)]
4.75	N=C(Nc1cccc(CNC[C@@H]2CCCN2)c1)c1cccs1 [N-[3-({[(2S)-pyrrolidin-2-ylmethyl]amino}methyl)phenyl]thiophene-2-carboximidamide (20)]
5.30	Cc1cc(N)nc(CCc2cncc(CCc3cc(C)nc(N)c3)c2)c1 [6-(2-{5-[2-(2-amino-6-methylpyridin-4-yl)ethyl]pyridin-3-yl}ethyl)-4-methylpyridin-2-amine]
4.59	Cc1cc(N)nc(CCc2cccc([C@H](N)Cc3cc(C)cc(N)n3)c2)c1
4.96	N=C(Nc1cccc(COC[C@@H]2C[C@H](OCc3cccc(NC(=N)c4cccs4)c3)CN2)c1)c1cccs1 [N-[3-({[(3S,5S)-5-({[3-(thiophene-2-imidamido)phenyl]methoxy}methyl)pyrrolidin-3-yl]oxy}methyl)phenyl]-2H-1λ⁴-thiophene-2-carboximidamide (25)]
